From patent US20240058371A1, “MOLECULE FOR INDUCING SPONTANEOUS CALCIFICATION OF TUMOR CELLS AND USE THEREOF” (ZHEJIANG UNIVERSITY, priority 2020, published 2024)
“Also recorded” adds a separate entry of the source.

How the values were obtained:
[1] = systemic FA administration; cited from earlier work
A549-Luci cells [2] = assay: Mouse model of metastatic lung tumors, small animal in vivo imaging; design: species or system nude mice; conditions: 200 mg/kg tail vein, compared with the control group
Method: To construct a mouse model of metastatic lung tumors, 3×10^6 A549-Luci cells
were injected into the tail vein of nude mice, followed by injection of targeting peptide (CiP; 200 mg/kg) through the tail vein. Control mice were injected with PBS, 4 mg/kg adriamycin (Dox), and a control peptide ([…], targeting peptide, TP) at the same concentration as the CiP peptide; this experiment investigated whether CiP targeting peptide-induced calcification of A549 cells could inhibit lung cancer growth and metastasis. Tumorigenesis was monitored using a small animal in vivo imaging system.
The above experiments were repeated using the E6[…], E10[…], E16[…], and E30[…] peptides.

[3] = tested on: human non-small cell lung cancer cells (lines A549, H460, and H1299); assay: Flow cytometry of cell surface-bound FITC-modified targeting peptide, lung cancer cells; format: binding; conditions: 100 μg/mL FITC-modified peptide, 30 min, Ca2+ up to 2.75 mM, phosphate up to 1.61 mM
Method: (§1) The free amino groups of aspartic acid residues in the targeting peptide were reacted with fluorescein isothiocyanate (FITC) in phosphate-buffered saline (PBS) solution for 12 hours, then dialyzed in dialysis bags for 5 days and lyophilized to obtain FITC-modified targeting peptide molecules.

[4] = tested on: Beas-2b human lung epithelial cells, and human umbilical vein endothelial cells (HUVECs); assay: Flow cytometry of cell surface-bound FITC-modified targeting peptide, normal cells; format: binding; conditions: 100 μg/mL FITC-modified peptide, 30 min
Method: as §1

[5] = tested on: A549 human non-small cell lung cancer cells; assay: Electron microscopy / EDX elemental scan of cell surface calcification, lung cancer cells; format: cell-based; conditions: 1 mg/mL, 48 hours, Ca2+ up to 2.75 mM, phosphate up to 1.61 mM
From the text: (§2) Subsequently, they were subjected to electron microscopy to detect calcification on the cell surface.

lung epithelial cells = assay: Electron microscopy / EDX elemental scan of cell surface calcification, lung epithelial cells; format: cell-based, human
From the text: as §2

[6] = tested on: human non-small cell lung cancer cells (lines A549, H460, and H1299); assay: CCK8 assay, lung cancer cells; format: cell-based; design: dose or concentration left out as unconfirmed; conditions: 48 hours
Method: CCK8 assays were performed to determine the killing effect of targeting peptide-induced calcification of lung cancer cells.

[7] = tested on: Beas-2b human lung epithelial cells; assay: CCK8 assay, normal lung epithelial cells; format: cell-based; design: dose or concentration left out as unconfirmed; conditions: 48 hours
A549-Luci cells [8] = assay: Ultrasound and CT imaging of calcified lung cancer, mouse model of pulmonary metastatic tumors; format: in vivo, nude mice; conditions: 200 mg/kg intravenous, 4 weeks after model establishment
Method: (§3) Fifty micrograms of SodA peptide ([…]) and 0.25 mL of incomplete Freund's adjuvant were mixed and subcutaneously injected into the backs of C57 mice. Two weeks later, 50 μg of SodA peptide and 6000 agarose 4B beads dissolved in 0.2 mL PBS were covalently coupled and injected into the tail vein of the same C57 mice to construct a mouse model of pulmonary nodules. Additionally, 3×10^6 A549-Luci cells were injected into the tail vein of nude mice to construct a mouse model of pulmonary metastatic tumors. Some mice underwent intravenous injection of the targeting peptide (200 mg/kg) to induce calcification; simultaneous ultrasound and CT scans of normal lung cancer, calcified lung cancer, and pulmonary nodules were performed at 4 weeks after model establishment.

pulmonary nodules = assay: Ultrasound and CT imaging, mouse model of pulmonary nodules; format: in vivo, C57 mice; conditions: 200 mg/kg intravenous, 4 weeks after model establishment
Method: as §3

Nc1nc2ncc(CNc3ccc(C(=O)N[C@@H](CCC(=O)O)C(=O)O)cc3)nc2c(=O)[nH]1 [FA, folic acid]
body weight [1]: dramatically reduces body weight | survival time [1]: severely decreases survival time | tumor growth [1]: promotes tumor growth

E6TDSILRSYDWTY
growth (and metastasis) of A549 lung cancer cells in vivo (A549-Luci cells [2]): significantly inhibited the growth of A549 cells

E10TDSILRSYDWTY
growth (and metastasis) of A549 lung cancer cells in vivo (A549-Luci cells [2]): significantly inhibited the growth of A549 cells

E16TDSILRSYDWTY
growth (and metastasis) of A549 lung cancer cells in vivo (A549-Luci cells [2]): significantly inhibited the growth of A549 cells

E24 TDSILRSYDWTY [targeting peptide]
binding of targeting peptide to cell surface [3]: selectively bound to the surface of lung cancer cells | binding of targeting peptide to cell surface [4]: did not bind to normal epithelial cells; also recorded: weakly bound to normal cells | calcification on the cell surface (EDX calcium and phosphorus peaks) [5]: significantly increased calcification peaks | calcification on the cell surface (EDX calcium and phosphorus peaks) ([5]; listed as CiP): significantly increased | calcification on the cell surface (EDX calcium and phosphorus) (lung epithelial cells): without significantly affecting normal lung epithelial cells; also recorded: less deposition of calcium and phosphorus elements | proliferative activity / killing effect [6]: selectively inhibited the proliferative activities of various lung cancer cells | toxic effects on normal lung epithelial cells [7]: without significant toxic effects on normal lung epithelial cells | identification of calcified lung cancer on ultrasound (A549-Luci cells [8]): evident as high-density calcified foci on ultrasound; also recorded: could be clearly identified on ultrasound | visualisation of calcified lung cancer on CT (A549-Luci cells [8]): revealed a clear boundary on CT; also recorded: could be visualized on CT | identification of pulmonary nodules by imaging (pulmonary nodules): could not be clearly identified by imaging | growth (and metastasis) of A549 lung cancer cells in vivo (A549-Luci cells [2]): effectively inhibited the growth and metastasis of lung cancer | growth (and metastasis) of A549 lung cancer cells in vivo (A549-Luci cells [2]; listed as CiP targeting peptide): significantly inhibited the growth of A549 cells

E30TDSILRSYDWTY
growth (and metastasis) of A549 lung cancer cells in vivo (A549-Luci cells [2]): significantly inhibited the growth of A549 cells
